Consider 1 molecule from patent US10301292B2, “Bicyclic compound” (Takeda Pharmaceutical Company Limited, priority 2014, dated 2019).

One assay concerns the target T1, human ACC1 (Homo sapiens, UniProt Q13085).
T1 construct: His tag (from vector pFAST-BacHTc; protein captured on Ni-NTA) (N); made in house; host or cells: SF-9 insect cells, recombinant baculovirus BAC-ACC1
Put plainly: Measurement of ACC1 inhibitory activity (Malonyl-CoA production, RapidFire-mass spectrometry). The conditions noted are these: 10 μM of the test compound; recombinant human ACC1; read-out: ACC1 inhibitory rate (%) at 10 μM. The assay is classed as biochemical. An outline of the steps: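 Sf9-expressed His-tagged human ACC1, diluted to 0.2 μg/ml in HEPES pH 7.5/MgCl2/citrate/DTT/0.001% BSA, was preincubated 60 min at RT with compound. Reaction started with substrate solution (50 mM KHCO3, 200 μM ATP, 200 μM acetyl-CoA), ran 30 min at RT, then was formic acid-quenched. Malonyl-CoA was quantified by RapidFire-MS against malonyl-13C3-CoA.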

Another assay deals with HCT116 cells. Put plainly: Growth inhibitory activity on HCT116 cell (CellTiter-Glo). The assay is classed as cell-based. The following applies: Homo sapiens, HCT-116, 72 h, table head: 10 μM (text b2498: 1 μM), 3 days incubation, read-out: HCT116 cell proliferation inhibitory rate (%) at 10 μM. In outline:
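HCT116 cells in RPMI with 2% FBS, 900 cells/well, treated the day after seeding and incubated 3 days at 37 °C, 5% CO2. Viability read by CellTiter-Glo luminescence. Percent inhibition calculated relative to untreated wells, with cell-free wells subtracted as background.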

For `CC(NC(N)=O)c1ccc2nc(-c3ccc(Oc4cccc(OCC5CC5)c4)nc3)oc2c1` (centres unmarked) [Example 98, 1-(1-(2-(6-(3-(cyclopropylmethoxy)phenoxy)pyridin-3-yl)-1,3-benzoxazol-6-yl)ethyl)urea], the inhibition at 10 µM on human ACC1 turned out to be 98%; in the assay on HCT116 cells it was 25%.
